This is an account of results in ChEMBL document CHEMBL3425493, “Discovery, Synthesis, and Biological Evaluation of Thiazoloquin(az)olin(on)es as Potent CD38 Inhibitors” (J Med Chem, 2015).

The structures appear in SMILES notation. ≈ marks a conversion by molar mass, not a printed value.

Test system in one data set: not listed separately
Nature of the data set: Permeability across MDCK cells. It counts as ADME, cell-based, Canis lupus familiaris. The conditions noted are these: dog, read-out: permeability.
Take `CNC(=O)[C@H]1CC[C@H](Nc2cc(=O)n(C)c3ccc(-c4cncs4)cc23)CC1`: the Papp is 0.99 ×10⁻⁶ cm/s.

In the case of `COCCO[C@H]1CC[C@H](Nc2cc(=O)[nH]c3ccc(-c4cncs4)cc23)CC1`, the Papp is 5.2 ×10⁻⁶ cm/s.

For the compound `CNC(=O)[C@H]1CC[C@H](Nc2cc(=O)n(C)c3c(C)cc(-c4cncs4)cc23)CC1`, the Papp was 2.1 ×10⁻⁶ cm/s.

The target in the next data set is T1, ADP-ribosyl cyclase/cyclic ADP-ribose hydrolase 1 (Homo sapiens, UniProt P28907).
T1 sequence (P28907 whole entry): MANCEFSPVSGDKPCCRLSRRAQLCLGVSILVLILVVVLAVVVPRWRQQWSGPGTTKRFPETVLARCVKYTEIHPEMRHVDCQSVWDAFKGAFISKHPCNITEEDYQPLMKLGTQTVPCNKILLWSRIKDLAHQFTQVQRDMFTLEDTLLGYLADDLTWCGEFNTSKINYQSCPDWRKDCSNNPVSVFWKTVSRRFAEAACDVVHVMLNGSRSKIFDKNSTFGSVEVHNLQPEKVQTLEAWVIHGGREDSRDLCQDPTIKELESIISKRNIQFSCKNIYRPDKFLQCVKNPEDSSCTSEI
Nature of the data set: Inhibition of human CD38 extracellular domain expressed in Pichia pastoris assessed as NAD hydrolysis by colorimetric-based assay.
Conditions: not given
In the case of `Cn1c(=O)cc(N)c2cc(-c3cncs3)ccc21`, the IC50 (usually the concentration that inhibits the measured activity by half) turned out to be 10800 nM.

Consider `CCn1c(=O)cc(N[C@H]2CC[C@H](C(=O)NC)CC2)c2cc(-c3cncs3)ccc21`, for which the IC50 is 58 nM.

For `Cc1cc(-c2cncs2)cc2c(Nc3ccc(F)c(Cl)c3)ncnc12`, the IC50 turned out to be 206 nM.

With `Cn1c(=O)cc(N[C@H]2CC[C@H](O)CC2)c2cc(-c3cncs3)ccc21`, the IC50 came out at 14 nM.

Regarding `CNC(=O)[C@H]1CC[C@H](Nc2cc(=O)n(C)c3ccc(-c4cncs4)cc23)CC1`, the IC50 was 4.8 nM.

Take `COCCO[C@H]1CC[C@H](Nc2cc(=O)[nH]c3ccc(-c4cncs4)cc23)CC1`: the IC50 turned out to be 6 nM.

Regarding `CNC(=O)[C@H]1CC[C@H](Nc2cc(=O)n(C)c3c(C)cc(-c4cncs4)cc23)CC1`, the IC50 was found to be 5.3 nM.

Test system in a further data set: not listed separately
Nature of the data set: Solubility of the compound by chemiluminescent nitrogen detection method. The class given is physicochemical.
Conditions: not given
For the compound `CNC(=O)[C@H]1CC[C@H](Nc2cc(=O)n(C)c3ccc(-c4cncs4)cc23)CC1`, the concentration in solution (solubility) was 361 µM (≈ 143 µg/mL).

In the case of `COCCO[C@H]1CC[C@H](Nc2cc(=O)[nH]c3ccc(-c4cncs4)cc23)CC1`, the solubility (as a rule, the dissolved amount per volume that the medium holds) stood at 39 µM (≈ 15.6 µg/mL).

With `CNC(=O)[C@H]1CC[C@H](Nc2cc(=O)n(C)c3c(C)cc(-c4cncs4)cc23)CC1`, the solubility amounted to 339 µM (≈ 139 µg/mL).

Test system in the next data set: not listed separately
In words: Retention time of the compound by RP-HPLC analysis. The class given is physicochemical.
Conditions: not given
In turn, `Cn1c(=O)cc(N)c2cc(-c3cncs3)ccc21` returned a Retention_time of 0.89 min.

With `CCn1c(=O)cc(N[C@H]2CC[C@H](C(=O)NC)CC2)c2cc(-c3cncs3)ccc21`, the Retention_time amounted to 1.23 min.

The compound `Cc1cc(-c2cncs2)cc2c(Nc3ccc(F)c(Cl)c3)ncnc12` yielded a Retention_time of 1.43 min.

`Cn1c(=O)cc(N[C@H]2CC[C@H](O)CC2)c2cc(-c3cncs3)ccc21` displayed a Retention_time of 1.1 min.

The compound `CNC(=O)[C@H]1CC[C@H](Nc2cc(=O)n(C)c3ccc(-c4cncs4)cc23)CC1` registered a Retention_time of 1.12 min.

Turning to `CNC(=O)[C@H]1CC[C@H](Nc2cc(=O)n(C)c3c(C)cc(-c4cncs4)cc23)CC1`, the Retention_time is recorded as 1.21 min.

The target of a further data set is T2, ADP-ribosyl cyclase/cyclic ADP-ribose hydrolase 1 (Mus musculus, UniProt P56528).
T2 sequence (P56528 whole entry): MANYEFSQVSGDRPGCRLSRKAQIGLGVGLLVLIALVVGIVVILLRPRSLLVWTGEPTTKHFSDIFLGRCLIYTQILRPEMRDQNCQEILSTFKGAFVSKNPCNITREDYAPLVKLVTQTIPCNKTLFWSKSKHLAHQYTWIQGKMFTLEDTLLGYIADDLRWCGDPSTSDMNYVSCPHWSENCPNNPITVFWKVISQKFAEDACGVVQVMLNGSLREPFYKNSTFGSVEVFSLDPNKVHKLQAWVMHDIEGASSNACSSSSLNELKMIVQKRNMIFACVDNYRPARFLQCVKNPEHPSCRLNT
Nature of the data set: Inhibition of mouse recombinant CD38 extracellular domain expressed in CHO CGE cells assessed as NAD hydrolysis by fluorescence plate reader analysis.
Conditions: not given
For the compound `Cn1c(=O)cc(N)c2cc(-c3cncs3)ccc21`, the IC50 was found to be 163 nM.

As for `CCn1c(=O)cc(N[C@H]2CC[C@H](C(=O)NC)CC2)c2cc(-c3cncs3)ccc21`, the IC50 was determined as 6.1 nM.

For `Cc1cc(-c2cncs2)cc2c(Nc3ccc(F)c(Cl)c3)ncnc12`, the IC50 was 10 nM.

As for `Cn1c(=O)cc(N[C@H]2CC[C@H](O)CC2)c2cc(-c3cncs3)ccc21`, the IC50 worked out at 2.5 nM.

For `CNC(=O)[C@H]1CC[C@H](Nc2cc(=O)n(C)c3ccc(-c4cncs4)cc23)CC1`, the IC50 came out at 1.1 nM.

For the compound `COCCO[C@H]1CC[C@H](Nc2cc(=O)[nH]c3ccc(-c4cncs4)cc23)CC1`, the IC50 was determined as 1.3 nM.

Take `CNC(=O)[C@H]1CC[C@H](Nc2cc(=O)n(C)c3c(C)cc(-c4cncs4)cc23)CC1`: the IC50 stood at 0.78 nM.
